Experimental data: patent publication US20230181614A1, “ADMINISTRATION OF CITICOLINE TO IMPROVE COGNITIVE PERFORMANCE, ATTENTIONAL PERFORMANCE, AND MOTOR FUNCTION” (KYOWA HAKKO BIO CO., LTD., priority 2014, published 2023)
Several values for one entry are separate records, joined by “and”; a condition that tells them apart may be missing. Identical values can stand only once.

Columns and labels:
[1] = tested on: Healthy subjects, ages 13-18; experiment: Barratt Impulsiveness Scale (BIS); type: in vivo, human; set-up: BIS Attention, Mean / BIS Motor, Mean / BIS Total, Mean: scale not given here
Description: Study participants were screened by telephone prior to study enrollment. Healthy subjects, ages 13-18, with no significant medical conditions and no history of co-morbid psychiatric disorder, current Axis I or II diagnosis, or previous participation in a pharmacotherapeutic trial, were selected. Use of any psychotropic medication or any previous head injury resulting in loss of consciousness for 5 or more minutes were used as exclusion criteria. While no participant met criteria for a neuropsychiatric disorder at enrollment, clinical assessments were still completed throughout the study to evaluate changes in mood state. In addition, self-reports of sleep habits, lifestyle, and exercise routines were also administered at baseline as well as at each study visit to assess changes in health habits during study participation. Following the completion of Visit 1 assessment, participants were given their 28-day supply of citicoline (250 mg or 500 mg) or placebo, which was randomly assigned. They were instructed to take one capsule a day every day for the next 28 days. Visit 2 occurred fourteen days after Visit 1. At Visit 2, the remaining study pills were counted and participant dosage calendars were checked to ensure compliance with the protocol. Additional neuropsychological measures and clinical assessments were administered during this visit. Participants returned for Visit 3 fourteen days later, on the 28th day of their study participation. The pill bottle and the dosage calendar were collected from each participant. Urine and blood were again obtained. Participants also participated in similar clinical and neuropsychological testing and clinical measures that were given during visit 1. The BIS is a questionnaire is a scale used to measure impulsiveness. It includes three subscales: attentional, motor, and non-planning impulsiveness. A total score, or a sum of the three factors, was also calculated. The scale was administered at the first and third visits to assess presence or absence of symptoms of impulsiveness.

[2] = tested on: Healthy subjects, ages 13-18; experiment: Pittsburgh Sleep Quality Index (PSQI); type: in vivo, human; settings: for PSQI Score, Mean: V3-V1
Description: Study participants were screened by telephone prior to study enrollment. Healthy subjects, ages 13-18, with no significant medical conditions and no history of co-morbid psychiatric disorder, current Axis I or II diagnosis, or previous participation in a pharmacotherapeutic trial, were selected. Use of any psychotropic medication or any previous head injury resulting in loss of consciousness for 5 or more minutes were used as exclusion criteria. While no participant met criteria for a neuropsychiatric disorder at enrollment, clinical assessments were still completed throughout the study to evaluate changes in mood state. In addition, self-reports of sleep habits, lifestyle, and exercise routines were also administered at baseline as well as at each study visit to assess changes in health habits during study participation. Following the completion of Visit 1 assessment, participants were given their 28-day supply of citicoline (250 mg or 500 mg) or placebo, which was randomly assigned. They were instructed to take one capsule a day every day for the next 28 days. Visit 2 occurred fourteen days after Visit 1. At Visit 2, the remaining study pills were counted and participant dosage calendars were checked to ensure compliance with the protocol. Additional neuropsychological measures and clinical assessments were administered during this visit. Participants returned for Visit 3 fourteen days later, on the 28th day of their study participation. The pill bottle and the dosage calendar were collected from each participant. Urine and blood were again obtained. Participants also participated in similar clinical and neuropsychological testing and clinical measures that were given during visit 1. The PSQI is a self-report sleep questionnaire designed to assess usual sleep habits during the past month. The PSQI was administered at each of the three study visits to assess alterations to sleep quality during the 28 days of study participation.

## C[N+](C)(C)CCOP(=O)(O)OP(=O)([O-])OC[C@H]1O[C@@H](n2ccc(N)nc2=O)[C@H](O)[C@@H]1O [citicoline, Cytidine 5′-diphosphocholine]
[1]; 250 mg/day, V1 (baseline)
  BIS Attention, Mean: 18.52
  BIS Motor, Mean: 22.22
  BIS Non-planning, Mean: 24.85
  BIS Total, Mean: 65.59
[1]; 250 mg/day, V3 (day 28)
  BIS Attention, Mean: 18.59
  BIS Motor, Mean: 22.00
  BIS Non-planning, Mean: 24.44
  BIS Total, Mean: 65.04
[1]; 250 mg/day, V3-V1
  BIS Attention, Mean: 0.07
  BIS Motor, Mean: -0.22
  BIS Non-planning, Mean: -0.41
[1]; 500 mg/day, V1 (baseline)
  BIS Attention, Mean: 16.54
  BIS Motor, Mean: 20.21
  BIS Non-planning, Mean: 22.67
  BIS Total, Mean: 59.63
[1]; 500 mg/day, V3 (day 28)
  BIS Attention, Mean: 16.50
  BIS Motor, Mean: 20.04 and 19.29
  BIS Non-planning, Mean: 21.71 and 22.42
  BIS Total, Mean: 58.21
[1]; 500 mg/day, V3-V1
  BIS Attention, Mean: -0.04
  BIS Motor, Mean: -1.00
  BIS Non-planning, Mean: -0.38
  BIS Total, Mean: -1.42
[2]; 250 mg/day, V1 (baseline)
  PSQI, Mean: 3.41
[2]; 250 mg/day, V3 (day 28)
  PSQI, Mean: 2.59
[2]; 250 mg/day
  PSQI Score, Mean: -0.81
[2]; 500 mg/day, V1 (baseline)
  PSQI, Mean: 3.38
[2]; 500 mg/day, V3 (day 28)
  PSQI, Mean: 2.46
[2]; 500 mg/day
  PSQI Score, Mean: -0.92
